# In patent US9067897B2, “2,4-Diaminoquinazolines for spinal muscular atrophy” (Families of Spinal Muscular Atrophy, priority 2004, dated 2015):
# Structures can show the parent of a compound that is named as a salt.
# System: SMN2 promoter
# Assay: SMN2 promoter assay (β-lactamase reporter) in NSC-34 cells
# Type: cell-based, mouse
# Details: Mus musculus, SMN2 promoter driving β-lactamase, 12 point dose curve, average of 3-6 dose curve experiments
# Excerpt: All compounds were screened using an in vitro based SMN2 promoter assay. We used NSC-34 cells, a hybrid cell line between mouse spinal cord cells and mouse neuroblastoma cells. NSC-34 cells harbor an expression plasmid containing a 3.4 kb promoter fragment of the SMN2 gene driving β-lactamase expression.
# […] […] CCF2-AM diffuses across the plasma membrane and is converted into an active β-lactamase substrate by cytoplasmic esterase. […] The fold induction is proportional to the extent of β-lactamase produced and in turn proportional to SMN2 promoter activation for a given compound relative to vehicle (DMSO) control. […] These values are used to rank activities of the compounds and derive structure activity relationship.
row,Structure (SMILES),EC50 [µM]
1,"CC(Oc1cccc2nc(N)nc(N)c12)c1nccs1 (centres unmarked) [Example 58, 5-(1-Thiazol-2-ylethoxy)quinazoline-2,4-diamine]",< 1
2,"Nc1nc(N)c2c(OCc3ccc(Br)cc3)cccc2n1 [Example 62, 5-(4-Bromobenzyloxy)-quinazoline-2,4-diamine]",< 1
3,"CC(Oc1cccc2nc(N)nc(N)c12)c1ccc2c(c1)OCO2 (centres unmarked) [Example 64, 5-(1-Benzo[1,3]-dioxol-5-yl-ethoxy)-quinazoline-2,4-diamine]",< 1
4,"COc1ccc(COc2cccc3nc(N)nc(N)c23)cc1OC [Example 65, 5-(3,4-Dimethoxybenzyloxy)-quinazoline-2,4-diamine]",< 1
5,"COc1cccc(C(C)Oc2cccc3nc(N)nc(N)c23)c1 (centres unmarked) [Example 66, 5-[1-(3-Methoxyphenyl)-ethoxy]-quinazoline-2,4-diamine]",< 1
6,"COc1cc(OC)cc(C(C)Oc2cccc3nc(N)nc(N)c23)c1 (centres unmarked) [Example 67, 5-[1-(3,5-Dimethoxyphenyl)-ethoxy]-quinazoline-2,4-diamine]",< 1
7,"COCOCC(COc1cccc2nc(N)nc(N)c12)c1ccc(Cl)cc1 (centres unmarked) [Example 68, 5-[2-(4-Chlorophenyl)-3-methoxymethoxypropoxy]-quinazoline-2,4-diamine]",< 1
8,"Nc1nc(N)c2c(OCC(CO)c3ccc(Cl)cc3)cccc2n1 (centres unmarked) [Example 69, 2-(4-Chlorophenyl)-3-(2,4-diaminoquinazolin-5-yloxy)-propan-1-ol hydrochloride]",< 1
9,"Nc1nc(N)c2c(OCc3cc(Cl)c(Cl)cc3CO)cccc2n1 [Example 70, [4,5-Dichloro-2-(2,4-diaminoquinazolin-5-yloxymethyl)phenyl]methanol hydrochloride]",< 1
10,"COc1cc(Cl)ccc1Oc1cccc2nc(N)nc(N)c12 [Example 71, 5-(4-Chloro-2-methoxyphenoxy)-quinazoline-2,4-diamine]",< 1
11,"Nc1nc(N)c2c(OCc3ccccc3I)cccc2n1 [Example 75, 5-(2-Iodo-benzyloxy)-quinazoline-2,4-diamine]",< 1
12,"Nc1nc(N)c2c(OCc3cccc(I)c3)cccc2n1 [Example 77, 5-(3-Iodo-benzyloxy)-quinazoline-2,4-diamine]",< 1
13,"Nc1nc(N)c2c(OC3CCc4c(F)cccc43)cccc2n1 (centres unmarked) [Example 80, 5-(4-Fluoroindan-1-yloxy)-quinazoline-2,4-diamine]",< 1
14,"CC(Oc1cccc2nc(N)nc(N)c12)c1c(F)cccc1F (centres unmarked) [Example 82, 5-[1-(2,6-Difluorophenyl)-ethoxy]-quinazoline-2,4-diamine]",< 1
15,"Nc1nc(N)c2c(OCc3cc(F)cc(F)c3F)cccc2n1 [Example 83, 5-(2,3,5-Trifluorobenzyloxy)-quinazoline-2,4-diamine]",< 1
16,"Nc1nc(N)c2c(OCc3ccc(F)c(F)c3)cccc2n1 [Example 87, 5-(3,4-Difluorobenzyloxy)quinazoline-2,4-diamine]",< 1
17,"COc1ccc(Cl)cc1COc1cccc2nc(N)nc(N)c12 [Example 88, 5-(5-Chloro-2-methoxybenzyloxy)quinazoline-2,4-diamine]",< 1
18,"Nc1nc(N)c2c(-c3cccc(Cl)c3)cccc2n1 [Example 91, 5-(3-Chlorophenyl)-quinazoline-2,4-diamine]",< 1
19,"C[C@@H](Oc1cccc2nc(N)nc(N)c12)c1cccc(Cl)c1 [Example 92, 5-[(R)-1-(3-Chlorophenyl)ethoxyl]quinazolin-2,4-diamine]",< 1
20,"CC(Oc1cccc2nc(N)nc(N)c12)c1cccc(F)c1 (centres unmarked) [Example 93, 5-[1-(3-Fluorophenyl)-ethoxy]-quinazoline-2,4-diamine]",< 1
21,"CC(Oc1cccc2nc(N)nc(N)c12)c1ccccc1C(F)(F)F (centres unmarked) [Example 94, 5-[1-(2-Trifluoromethylphenyl)-ethoxy]-quinazoline-2,4-diamine]",10 to 20
22,"Nc1nc(N)c2c(OCc3ccc(F)cc3)cccc2n1 [Example 97, 5-(4-Fluorobenzyloxy)-quinazoline-2,4-diamine]",< 1

# Continued, values first:
row,EC50 [µM],Structure (SMILES)
1,< 1,"CC(Oc1cccc2nc(N)nc(N)c12)c1ccccn1 (centres unmarked) [Example 57, 5-(1-Pyridin-2-ylethoxy)quinazoline-2,4-diamine]"
2,< 1,"Nc1nc(N)c2c(N3CCCCC3)cccc2n1 [Example 59, 5-(Piperidin-1-yl)quinazoline-2,4-diamine]"
3,1 to 5,"Cc1cccc(S(=O)(=O)c2cccc3nc(N)nc(N)c23)c1 [Example 60, 5-(Toluene-3-sulfonyl)-quinazoline-2,4-diamine]"
4,< 1,"Nc1nc(N)c2c(OC3CCc4ccc(Cl)cc43)cccc2n1 (centres unmarked) [Example 61, 5-(6-Chloro-indan-1-yloxy)-quinazoline-2,4-diamine]"
5,< 1,"CC(Oc1cccc2nc(N)nc(N)c12)c1cccc(I)c1 (centres unmarked) [Example 63, 5-[1-(3-Iodophenyl)-ethoxy]-quinazoline-2,4-diamine]"
6,< 1,"Nc1nc(N)c2c(OCC34CC5CC(CC(C5)C3)C4)cccc2n1 [Example 73, 5-(Adamantan-1-ylmethoxy)-quinazoline-2,4-diamine]"
7,< 1,"Nc1nc(N)c2c(OCc3ccccc3Br)cccc2n1 [Example 74, 5-(2-Bromo-benzyloxy)-quinazoline-2,4-diamine]"
8,< 1,"Nc1nc(N)c2c(OCc3cccc(Br)c3)cccc2n1 [Example 76, 5-(3-Bromobenzyloxy)quinazoline-2,4-diamine]"
9,< 1,"CC(Oc1cccc2nc(N)nc(N)c12)c1ccc(Cl)c(Cl)c1 (centres unmarked) [Example 78, 5-[1-(3,4-Dichlorophenyl)-ethoxy]-quinazoline-2,4-diamine]"
10,< 1,"Nc1nc(N)c2c(OCc3cc(F)cc(F)c3)cccc2n1 [Example 79, 5-(3,5-Difluorobenzyloxy)quinazoline-2,4-diamine]"
11,< 1,"Nc1nc(N)c2c(OC3CCc4ccc(F)cc43)cccc2n1 (centres unmarked) [Example 81, 5-(6-Fluoroindan-1-yloxy)-quinazoline-2,4-diamine]"
12,< 1,"Nc1nc(N)c2c(OCc3cc(F)ccc3F)cccc2n1 [Example 84, 5-(2,5-Difluorobenzyloxy)-quinazoline-2,4-diamine]"
13,< 1,"Nc1nc(N)c2c(OCc3ccc(F)cc3F)cccc2n1 [Example 85, 5-(2,4-Difluorobenzyloxy)-quinazoline-2,4-diamine]"
14,< 1,"Nc1nc(N)c2c(OCc3c(F)cccc3F)cccc2n1 [Example 86, 5-(2,6-Difluorobenzyloxy)-quinazoline-2,4-diamine]"
15,< 1,"Nc1nc(N)c2c(OCc3cc(Cl)ccc3CO)cccc2n1 [Example 89, [4-Chloro-2-(2,4-diamino-quinazolin-5-yloxymethyl)-phenyl]-methanol hydrochloride]"
16,1 to 5,"Nc1nc(N)c2c(-c3ccsc3)cccc2n1 [Example 90, 5-Thiophen-3-yl-quinazoline-2,4-diamine]"
17,< 1,"CC(Oc1cccc2nc(N)nc(N)c12)c1cccc(C(F)(F)F)c1 (centres unmarked) [Example 95, 5-[1-(3-Trifluoromethylphenyl)-ethoxy]-quinazoline-2,4-diamine]"
18,< 1,"Nc1nc(N)c2c(OCc3ccccc3F)cccc2n1 [Example 96, 5-(2-Fluorobenzyloxy)-quinazoline-2,4-diamine]"

# Same assay, conditions: SMN2 promoter driving β-lactamase, 12 point dose curve, average of 3-6 dose curve experiments
row,EC50 [µM],Structure (SMILES)
1,1 to 5,"COc1cccc2c1OCC2Oc1cccc2nc(N)nc(N)c12 (centres unmarked) [Example 72, 5-(7-Methoxy-2,3-dihydrobenzofuran-3-yoloxy)-quinazoline-2.4-diamine]"
